Test results from patent US12605541B2, “Stabilized anti-cancer cold atmospheric plasma (CAP)-stimulated media and methods for preparing and using same” (The George Washington University, priority 2015, dated 2026).
Like-named read-outs stand apart in the source and are kept apart here.

Experiments:
[1] = test system: MDA-MB-231 cells; assay: MTT cell viability of breast cancer cells cultured in CAP-stimulated media; assay type: cell-based, human; conditions: CAP treatment time 2 minutes, storage at −25° C. for 3 days, FIG. 5e
[2] = for effect of the appearance of the component in DMEM on H2O2 during storage: 3 days of storage at −25° C., FIG. 5d; for effect of the presence of the component in DMEM on H202 in PSM during storage: three days of storage at 8° C., FIG. 3b; for effect of the component on H2O2 in CAP-stimulated PBS during storage: at 8° C. (FIG. 3a) (so in the source)
Experimental: The general research strategy described herein is illustrated in FIG. 1b. I mL of PSM was made by the vertical irradiation on the medium in a well on a 12-well plate. Then, the PSM was transferred to a 1.5 mL centrifuge tube by pipette. The centrifuge tubes were stored in refrigerators with different internal temperatures (8° C. and −25° C.) for 3 days. Additionally, some centrifuge tubes were stored at 22° C., for the investigation of PSM degradation at room temperature. Ultimately, the PSM was either transferred to culture the seeded cancer cells in a 96-well plate or transferred into a black wall 96-well plate to measure for H2O2 concentration. Because PBS is not suitable for cell culture, the protocols used to transfer the CAP-stimulated PBS are slightly different from those used to transfer the CAP-stimulated DMEM.
The protocols to prepare PSM are the same among different experiments. 1 mL of PBS or DMEM (or modified DMEM, such as cysteine/methionine-free DMEM) in a well on a Coming™ Falcon™ 12-well plate was treated by CAP for 1 or 2 minutes. The gap between the end of dielectric plasma tube and the bottom of 12-well plate was 3 cm.
H2O2 containing PBS and H2O2 containing DMEM were prepared by adding 30 wt¾ H2O2 solution to PBS and DMEM, respectively.
The amino acid(s) containing PBS, calcium containing PBS, magnesium containing PBS, glucose containing PBS, phenol red containing PBS, and amino acid(s) containing DMEM were prepared by adding and dissolving specific amino acid(s), calcium chloride solution, magnesium chloride solution, D-glucose, phenol red solution or an amino acid derivative (such as 3-nitro-L-tyrosine) in PBS and DMEM, respectively. With the exception of PBS and DMEM, the added components were purchased from Sigma Aldrich.
50 μL of CAP-stimulated medium or PBS to be analyzed for H2O2 concentration was transferred to a well on a black-wall Coming™ Falcon™ 96-well clear bottom plate in triplicate. Subsequently, according to standard protocols provided by Sigma Aldrich (St. Louis, MO), the H2O2 concentration in the cold plasma-stimulated medium was measured as follows. First, 50 μL of red peroxidase substrate stock solution, 200 μL of peroxidase stock solution, and 4.75 ml of assay buffer were mixed to prepare H2O2 probe solution. 50 μL of probe solution was then added in the black 96-well plate and mixed with 50 μL of the CAP-stimulated medium or PBS. After 30 min of storage at the room temperature, with protecting from light, a Hybrid Technology HI microplate reader (BioTek Instruments, Winooski, VT) was used to measure the fluorescence with an excitation wavelength at 540 nm and an emission wavelength at 590 nm. The final measured fluorescent strength of the experimental group was obtained by deducting the measured fluorescence of the control group from the measured fluorescence of the experimental group. The standard H202 solution was used to prepare the standard H202 concentration-fluorescence curve. Based on this standard curve, we obtained the H202 concentration in CAP-stimulated medium or PBS. The triplicate experiments were independently repeated for three times

| effect of the component on H2O2 degradation in CAP-stimulated PBS during freezing storage [2] | effect of the component on H202 degradation in CAP-stimulated PBS-based solution [2] | effect of the appearance of the component in DMEM on H2O2 during storage [2] | effect of the presence of the component in DMEM on H202 in PSM during storage [2] | SMILES | effect of the appearance of the component in DMEM on the anti-cancer capacity of PSM [1] | effect of the component on H2O2 in CAP-stimulated PBS during storage [2] | effect of the component on H2O2 degradation in CAP-stimulated PBS during freezing storage ([2]; storage at −25° C., FIG. 5c) |
| --- | --- | --- | --- | --- | --- | --- | --- |
| – | noticeable degradation | – | – | N[C@@H](Cc1ccccc1)C(=O)O [phenylalanine] | – | noticeable H2O2 degradation | – |
| aggravate the degradation | – | – | – | N[C@@H](Cc1ccc(O)cc1)C(=O)O [tyrosine] | – | – | – |

Further lines, the compound ahead of its results:

| SMILES | effect of the component on H2O2 degradation in CAP-stimulated PBS during freezing storage [2] | effect of the component on H202 degradation in CAP-stimulated PBS-based solution [2] | effect of the appearance of the component in DMEM on H2O2 during storage [2] | effect of the presence of the component in DMEM on H202 in PSM during storage [2] | effect of the appearance of the component in DMEM on the anti-cancer capacity of PSM [1] | effect of the component on H2O2 in CAP-stimulated PBS during storage [2] | effect of the component on H2O2 degradation in CAP-stimulated PBS during freezing storage ([2]; storage at −25° C., FIG. 5c) |
| --- | --- | --- | --- | --- | --- | --- | --- |
| N[C@@H](CS)C(=O)O [cysteine] | two most reactive components | most significant degradation | complete consumption of H2O2 | noticeable H202 degradation | significantly aggravates the degradation | – | – |
| NCCCC[C@H](N)C(=O)O [lysine] | – | – | – | – | – | inhibit the degradation | aggravate the degradation |
| CSCC[C@H](N)C(=O)O [methionine] | two most reactive components | most significant degradation | complete consumption of H2O2 | noticeable H202 degradation | significantly aggravates the degradation | – | – |
| N[C@@H](Cc1c[nH]c2ccccc12)C(=O)O [tryptophan] | aggravate the degradation | – | – | – | – | inhibit the degradation | – |
